Laboratory results as given in article PMC4492822 (EMBO Molecular Medicine, 2015).

Assays:
[1] = molecular target: Ded1p (yeast homolog of DDX3) (Saccharomyces cerevisiae, UniProt P06634); experiment: RNA helicase (unwinding) assay; type: biochemical; details: Ded1p 80 nM, 100 μM ATP; 50, 100, 200 nM tested
Protocol: The RNA helicase assay was performed as described earlier (Sengoku et al, [2006]) with a few modifications. Briefly, RNA oligomers R41 (unlabeled 41 nt) 5′-[…]-[…]-3′ and R13 (FAM-labeled 13 nt) 5′-[…]-3′ were annealed to form […] RNA duplexes and incubated with R13C (unlabeled 13-nt quencher RNA complementary to R13) 5′-[…]-3′, along with Ded1p protein (80 nM), 100 μM ATP, and […] RNasin (Promega, Madison, WI, USA) in reaction buffer containing 50 mM Tris, pH 7.8, 2 mM MgCl2, 3% glycerol, and 1 mM DTT for various times at room temperature. Reactions were stopped after 30-min incubation at room temperature with stop solution containing proteinase K (1 mg/ml) and SDS (0.6%). Reactions were loaded on acrylamide gels and bands visualized using a Typhoon scanner (GE Healthcare, Piscataway, NJ, USA).

A549 cells = experiment: Immunoblotting of cell cycle, apoptosis, MAPK and DNA repair proteins; type: cell-based, human
Protocol: Cell lysate was prepared with TB buffer method. For immunoblotting, ~25 μg protein was loaded on 10% SDS–PAGE gels. […] The blots were developed with clarity Western ECL (Bio-Rad, Hercules, CA, USA) and imaged with G:BOX Chemi XR5 (Syngene, Frederick, MD, USA).

H1299-DR-GFP cells = experiment: Homologous recombination reporter assay; type: cell-based
Protocol: NHEJ was assessed by the functional reporter system H1299-EJ, provided by E Dikomey. […] When these sites are incised by I-SceI, the artificial start codon is removed creating a DSB. Repair of this DSB by NHEJ restores GFP expression, so that cells capable for NHEJ can be identified by their GFP fluorescence intensity (Kriegs et al, [2010]). H1299.EJ cells were plated in a 6-well plate (1 × 10^5 cell/well) and treated with 4–6 μM RK-33. The following day, cells were transfected (in duplicates) with 1–2 μg of pSceI or pEGFP construct using TransIT-LT1 (Mirus, Madison, WI, USA) in serum-free media (Opti-MEM, Invitrogen, Carlsbad, CA, USA). Media was replaced after 4–6 h with complete media. Subsequently, cells were harvested by trypsinization, washed in PBS, and resuspended in 0.5 ml PBS. NHEJ activity was measured on a FACScan I instrument and analyzed on FlowJo software. Recombination frequency was calculated as ((% pSceI − % negative control) / % pEGFP). H1299-DR-GFP cells, provided by RG Bristow, were used to measure homologous recombination similarly as described above (Chan et al, [2008]).

H1299 = experiment: Annexin V / PI flow cytometry, 72 h; type: cell-based
Protocol: (§1) Histograms depicting early apoptosis (Annexin V positive) and late apoptosis (PI positive) in cells treated with the indicated amounts of RK-33. Cells were either treated with DMSO (controls) or IC50 and IC75 amounts of RK-33. After 72 hours incubation, cells were harvested and stained for Annexin V and PI and analyzed by flow cytometry.

H196 = experiment: Annexin V / PI flow cytometry, 72 h; type: cell-based
Protocol: as §1

H23 = experiment: Annexin V / PI flow cytometry, 72 h; type: cell-based
Protocol: as §1

H358 = experiment: Annexin V / PI flow cytometry, 72 h; type: cell-based
Protocol: as §1

H460 = experiment: Annexin V / PI flow cytometry, 72 h; type: cell-based
Protocol: as §1

A549 = experiment: Annexin V / PI flow cytometry, 72 h; type: cell-based, human
Protocol: as §1

[2] = 7.5 uM, lower line, first value
[3] = 7.5 uM, lower line, second value

Ded1p (yeast homolog of DDX3), sequence (P06634 whole entry): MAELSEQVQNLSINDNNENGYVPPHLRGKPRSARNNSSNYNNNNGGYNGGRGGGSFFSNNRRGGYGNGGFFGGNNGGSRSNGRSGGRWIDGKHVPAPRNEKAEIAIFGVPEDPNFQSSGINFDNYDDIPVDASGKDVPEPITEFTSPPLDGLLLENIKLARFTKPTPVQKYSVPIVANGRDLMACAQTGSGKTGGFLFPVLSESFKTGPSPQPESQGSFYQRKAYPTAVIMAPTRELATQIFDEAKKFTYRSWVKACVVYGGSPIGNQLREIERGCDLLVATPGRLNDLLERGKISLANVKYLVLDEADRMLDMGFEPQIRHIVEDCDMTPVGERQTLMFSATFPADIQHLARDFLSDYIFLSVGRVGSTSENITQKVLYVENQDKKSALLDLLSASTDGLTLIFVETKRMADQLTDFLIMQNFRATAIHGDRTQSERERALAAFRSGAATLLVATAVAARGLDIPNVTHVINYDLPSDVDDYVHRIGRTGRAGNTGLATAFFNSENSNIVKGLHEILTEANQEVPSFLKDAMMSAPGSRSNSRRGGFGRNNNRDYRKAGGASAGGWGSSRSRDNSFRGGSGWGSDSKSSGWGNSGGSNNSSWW

For “diimidazo[4,5-d:4′,5′-f]-[1,3]diazepine [RK-33]”, the “concentration from which unwinding activity is reduced (dose-dependent)” value [1] was 50 nM, the “DNA repair proteins ATR and XRCC4” value (A549 cells; 6 μM for 4 h, then 5 Gy) was “decrease of ATR but not XRCC4” and the “phosphorylated ERK2 and ERK1” value (A549 cells; 7.5 μM or 10 μM, 24 h) was “reduction of phosphorylated ERK2 and ERK1”. The caspase cleavage (A549 cells; 10 μM) was “cleavage of caspases 7 and 9”, the “cyclin D1 protein” value (A549 cells; 10 μM, especially evident 2 h after treatment) was “substantial reduction of cyclin D1” and the HR activity (H1299-DR-GFP cells) was “no changes in HR activity”. For the same substance, the “cells in gate of Annexin V/PI plot” value (H1299; [2]) was 40.4, the “cells in gate of Annexin V/PI plot” value (H1299; [3]) was 12.6 and the “cells in gate of Annexin V/PI plot” value (H1299; 7.5 uM, upper value of panel) was 33.7. For the same substance, the “cells in gate of Annexin V/PI plot” value (H1299; 13 uM, lower line, first value) was 36, the “cells in gate of Annexin V/PI plot” value (H1299; 13 uM, lower line, second value) was 7.3 and the “cells in gate of Annexin V/PI plot” value (H1299; 13 uM, upper value of panel) was 41.5. For the same substance, the “cells in gate of Annexin V/PI plot” value (H196; 3 uM, lower value of panel) was 43.3, the “cells in gate of Annexin V/PI plot” value (H196; 3 uM, upper value of panel) was 52.7 and the “cells in gate of Annexin V/PI plot” value (H196; 4.5 uM, lower value of panel) was 36.6. For the same substance, the “cells in gate of Annexin V/PI plot” value (H196; 4.5 uM, upper value of panel) was 60.9, the “cells in gate of Annexin V/PI plot” value (H23; 5 uM, lower line, first value) was 30.3 and the “cells in gate of Annexin V/PI plot” value (H23; 5 uM, lower line, second value) was 28.2. The “cells in gate of Annexin V/PI plot” value (H23; 5 uM, upper value of panel) was 39, the “cells in gate of Annexin V/PI plot” value (H23; [2]) was 17.1 and the “cells in gate of Annexin V/PI plot” value (H23; [3]) was 18.8. The “cells in gate of Annexin V/PI plot” value (H23; 7.5 uM, upper value of panel) was 60.4, the “cells in gate of Annexin V/PI plot” value (H358; 11 uM, lower line, first value) was 26.6 and the “cells in gate of Annexin V/PI plot” value (H358; 11 uM, lower line, second value) was 31.9. The “cells in gate of Annexin V/PI plot” value (H358; 11 uM, upper value of panel) was 34.9, the “cells in gate of Annexin V/PI plot” value (H358; 16 uM, lower line, first value) was 26.8 and the “cells in gate of Annexin V/PI plot” value (H358; 16 uM, lower line, second value) was 26.5. The “cells in gate of Annexin V/PI plot” value (H358; 16 uM, upper value of panel) was 40.8, the “cells in gate of Annexin V/PI plot” value (H460; 6.5 uM, lower value of panel) was 62 and the “cells in gate of Annexin V/PI plot” value (H460; 6.5 uM, upper value of panel) was 25.6. For the same substance, the “cells in gate of Annexin V/PI plot” value (H460; 9 uM, lower value of panel) was 50.1, the “cells in gate of Annexin V/PI plot” value (H460; 9 uM, upper value of panel) was 34.7 and the “cells in gate of Annexin V/PI plot” value (A549; 9 uM, first (upper) value of panel) was 81.7. For the same substance, the “cells in gate of Annexin V/PI plot” value (A549; 9 uM, second value of panel) was 4.44, the “cells in gate of Annexin V/PI plot” value (A549; 9 uM, third (lowest) value of panel) was 4.73 and the “cells in gate of Annexin V/PI plot” value (A549; 10.5 uM, first (upper) value of panel) was 85.3. The “cells in gate of Annexin V/PI plot” value (A549; 10.5 uM, second value of panel) was 5.99 and the “cells in gate of Annexin V/PI plot” value (A549; 10.5 uM, third (lowest) value of panel) was 2.26.
